# Earlier results, collected in patent US20050090554A1, “Treatment of gastroparesis and nonulcer dyspepsia with GABAB agonists” (priority 2003, published 2005).
# Tests used:
# [1] = compared with the S-isomer
# [2] = administered isomer
# [3] = with the exception of the upper small intestine (carrier-mediated transport)
SMILES,half-life [1],metabolic clearance [1],systemic exposure [1],arterial blood pressure and heart rate [2],permeability in the GI tract [3]
NC[C@H](CC(=O)O)c1ccc(Cl)cc1 [(R)-baclofen],longer,lower,higher,opposite effects,
NC[C@@H](CC(=O)O)c1ccc(Cl)cc1 [(S)-baclofen],,,,decrease,
"NCC(CC(=O)O)c1ccc(Cl)cc1 (racemic) [baclofen, 4-amino-3-(p-chlorophenyl)-butyric acid]",,,,,poor permeability
